Experimental data from patent US7943628B2, “Pyrimidine derivatives” (Pfizer Limited, priority 2005, dated 2011).

What follows are compounds tested against T1, histamine H4 receptor (Homo sapiens, UniProt Q9H3N8) (assay: H4 binding, method 1 ([3H]-histamine filtration binding on CHO cell membranes)). Conditions: 1.5 h.
T1 construct: expressed in transfected cells; host or cells: CHO cells
Procedure, shortened: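 Membranes from CHO cells expressing human H4 receptor (20-35 μg/well) incubated 90 min at room temperature with 3 nM [3H]-histamine in 50 mM Tris-HCl pH 7.4, ± competitor. Bound label separated by filtration on PEI-soaked GF/B filters and counted by scintillation; non-specific binding with 10 μM JNJ7777120.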

T1 sequence (Q9H3N8 whole entry): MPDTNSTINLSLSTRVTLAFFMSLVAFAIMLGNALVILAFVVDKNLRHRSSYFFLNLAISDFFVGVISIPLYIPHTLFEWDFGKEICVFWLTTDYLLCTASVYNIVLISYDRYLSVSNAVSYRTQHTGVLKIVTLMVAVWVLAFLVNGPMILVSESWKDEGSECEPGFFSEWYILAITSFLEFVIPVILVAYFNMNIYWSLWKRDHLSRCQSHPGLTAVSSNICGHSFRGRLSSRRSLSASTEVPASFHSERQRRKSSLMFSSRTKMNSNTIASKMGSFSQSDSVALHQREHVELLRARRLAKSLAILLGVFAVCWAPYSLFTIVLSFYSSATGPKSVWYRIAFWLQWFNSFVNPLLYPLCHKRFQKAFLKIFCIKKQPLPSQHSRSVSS

Compound	inhibition at 10 µM [%]
CN1CCN(c2cc(NC(C)(C)C)nc(N)n2)CC1 [Example 223, N^4-(tert-Butyl)-6-(4-methylpiperazin-1-yl)pyrimidine-2,4-diamine]	13
CCNc1cc(N2CC(C)(NC)C2)nc(N)n1 [Example 257, N^4-Ethyl-6-[3-methyl-3-(methylamino)azetidin-1-yl]pyrimidine-2,4-diamine]	100
CC(C)(C)CNc1cc(N2CCN(C3CCCCC3)CC2)ncn1 [Example 260, 6-(4-Cyclohexylpiperazin-1-yl)-N-(2,2-dimethylpropyl)pyrimidin-4-amine]	100

Same assay, conditions: H4 binding, method 1; Ki calculated from IC50 (Cheng-Prussoff)

Compound	Ki [nM]
CC(C)CNc1cc(N2C[C@H]3CNC[C@H]3C2)nc(N)n1 [Example 217, 6-[(3aR*,6aS*)-Hexahydropyrrolo[3,4-c]pyrrol-2(1H)-yl]-N^4-isobutylpyrimidine-2,4-diamine]	80.6
Nc1nc(NCC2CCCC2)cc(N2CC[C@@H](N)C2)n1 [Example 218, 6-[(3R)-3-Aminopyrrolidin-1-yl]-N^4-(cyclopentylmethyl)pyrimidine-2,4-diamine]	80.7
CCCNc1cc(N2CC[C@@H](N)C2)nc(N)n1 [Example 219, 6-[(3R)-3-Aminopyrrolidin-1-yl]-N^4-propylpyrimidine-2,4-diamine]	82.3
NCCNc1cc(NCC2CC2)ncn1 [Example 220, N-(2-Aminoethyl)-N′-(cyclopropylmethyl)pyrimidine-4,6-diamine]	88
CNc1cc(N2CC[C@@H](NC)C2)nc(N)n1 [Example 221, N^4-Methyl-6-[(3R)-3-(methylamino)pyrrolidin-1-yl]pyrimidine-2,4-diamine]	90.3
CC(C)(C)CNc1cc(NC2C3CNCC32)nc(N)n1 (stereo not drawn) [Example 222, N^4-[(1R*,5S*,6s*)-3-Azabicyclo[3.1.0]hex-6-yl]-N^6-(2,2-dimethylpropyl)pyrimidine-2,4,6-triamine]	95.2
CN1CCCN(c2cc(NC3CC3)ncn2)CC1 [Example 224, N-Cyclopropyl-6-(4-methyl-1,4-diazepan-1-yl)pyrimidin-4-amine]	101
CC(C)(C)CCNc1cc(N2CC[C@@H](N)C2)nc(N)n1 [Example 225, 6-[(3R)-3-Aminopyrrolidin-1-yl]-N^4-(3,3-dimethylbutyl)pyrimidine-2,4-diamine]	102
CC(C)NC1CN(c2cc(NCC(C)(C)C)ncn2)C1 [Example 226, N-(2,2-Dimethylpropyl)-6-[3-(isopropylamino)azetidin-1-yl]pyrimidin-4-amine]	113
CNCC1CN(c2cc(NCC3CC3)nc(N)n2)C1 [Example 227, N^4-(Cyclopropylmethyl)-6-{3-[(methylamino)methyl]azetidin-1-yl}pyrimidine-2,4-diamine]	115
C[C@H]1CN(c2cc(NCc3cccc(F)c3)nc(N)n2)CCN1 [Example 228, N^4-(3-Fluorobenzyl)-6-[(3S)-3-methylpiperazin-1-yl]pyrimidine-2,4-diamine]	117
CC(C)CNc1cc(N2CCC(N)CC2)nc(N)n1 [Example 229, 6-(4-Aminopiperidin-1-yl)-N^4-isobutylpyrimidine-2,4-diamine]	127
Nc1nc(NC2CCC2)cc(N2C[C@H]3CCCN[C@H]3C2)n1 [Example 230, N^4-Cyclobutyl-6-[(4aR,7aR)-octahydro-6H-pyrrolo[3,4-b]pyridin-6-yl]pyrimidine-2,4-diamine]	127
CC(C)Nc1cc(N2CCC3NCCC3C2)nc(N)n1 (stereo not shown) [Example 231, N^4-Isopropyl-6-(octahydro-5H-pyrrolo[3,2-c]pyridin-5-yl)pyrimidine-2,4-diamine]	131
CCCNc1cc(N2CC(N)C2)nc(N)n1 [Example 232, 6-(3-Aminoazetidin-1-yl)-N^4-propylpyrimidine-2,4-diamine]	13.9
CNC1CN(c2cc(NCc3ccc(F)c(F)c3)nc(N)n2)C1 [Example 233, N^4-(3,4-Difluorobenzyl)-6-[3-(methylamino)azetidin-1-yl]pyrimidine-2,4-diamine]	30.4
CC(C)Nc1cc(N2CCC(N)CC2)nc(N)n1 [Example 234, 6-(4-Aminopiperidin-1-yl)-N^4-isopropylpyrimidine-2,4-diamine]	177
CN[C@@H]1CCN(c2cc(NCCC(F)(F)F)nc(N)n2)C1 [Example 235, 6-[(3R)-3-(Methylamino)pyrrolidin-1-yl]-N^4-(3,3,3-trifluoropropyl)pyrimidine-2,4-diamine]	198
CNC1CN(c2cc(N3CC(F)(F)C3)nc(N)n2)C1 [Example 236, 4-(3,3-Difluoroazetidin-1-yl)-6-[3-(methylamino)azetidin-1-yl]pyrimidin-2-amine]	205
C[C@@H]1CN(c2cc(NCc3ccccc3F)nc(N)n2)CCN1 [Example 237, N^4-(2-Fluorobenzyl)-6-[(3R)-3-methylpiperazin-1-yl]pyrimidine-2,4-diamine]	211
CC(C)Nc1cc(N2C[C@H]3CNC[C@H]3C2)nc(N)n1 [Example 238, 6-[(3aR*,6aS*)-Hexahydropyrrolo[3,4-c]pyrrol-2(1H )-yl]-N^4-isopropylpyrimidine-2,4-diamine]	222

Compound	Ki [nM]
CN1CCCN(c2cc(NCC(C)(C)C)ncn2)CC1 [Example 239, N-(2,2-Dimethylpropyl)-6-(4-methyl-1,4-diazepan-1-yl)pyrimidin-4-amine]	235
C[C@H]1CN(c2cc(NCc3ccc(F)cc3)nc(N)n2)CCN1 [Example 240, N^4-(4-Fluorobenzyl)-6-[(3S)-3-methylpiperazin-1-yl]pyrimidine-2,4-diamine]	238
CNC1CN(c2cc(N3CCOC[C@@H]3C)nc(N)n2)C1 [Example 242, 4-[3-(Methylamino)azetidin-1-yl]-6-[(3S)-3-methylmorpholiN^4-yl]pyrimidin-2-amine]	258
CN[C@@H]1CCN(c2cc(NCC3CCC3)nc(N)n2)C1 [Example 243, N^4-(Cyclobutylmethyl)-6-[(3R)-3-(methylamino)pyrrolidin-1-yl]pyrimidine-2,4-diamine]	266
CC(C)(C)CCNc1cc(N2CC(N3CCCC3)C2)ncn1 [Example 244, N-(3,3-Dimethylbutyl)-6-(3-pyrrolidin-1-ylazetidin-1-yl)pyrimidin-4-amine]	297
CN[C@@H]1CCN(c2cc(NCc3cc(F)ccc3F)nc(N)n2)C1 [Example 245, N^4-(2,5-Difluorobenzyl)-6-[(3R)-3-(methylamino)pyrrolidin-1-yl]pyrimidine-2,4-diamine]	298
CC1(N)CCN(c2cc(NCC3CC3)nc(N)n2)C1 (stereo not shown) [Example 246, 6-(3-Amino-3-methylpyrrolidin-1-yl)-N^4-(cyclopropylmethyl)pyrimidine-2,4-diamine]	301
C[C@@H]1CN(c2cc(NCc3ccc(F)cc3)nc(N)n2)CCN1 [Example 247, N^4-(4-Fluorobenzyl)-6-[(3R)-3-methylpiperazin-1-yl]pyrimidine-2,4-diamine]	312
CNc1cc(N2CC(C)(NC)C2)nc(N)n1 [Example 248, N^4-Methyl-6-[3-methyl-3-(methylamino)azetidin-1-yl]pyrimidine-2,4-diamine]	329
CN[C@@H]1CCN(c2cc(NCc3cccc(F)c3)nc(N)n2)C1 [Example 249, N^4-(3-Fluorobenzyl)-6-[(3R)-3-(methylamino)pyrrolidin-1-yl]pyrimidine-2,4-diamine]	343
CNC1CCCN(c2cc(NCC(C)(C)C)nc(N)n2)C1 (stereo not shown) [Example 250, N^4-(2,2-Dimethylpropyl)-6-[3-(methylamino)piperidin-1-yl]pyrimidine-2,4-diamine]	353
C[C@H]1CN(c2cc(NCc3ccccc3)nc(N)n2)CCN1 [Example 251, N^4-Benzyl-6-[(3S)-3-methylpiperazin-1-yl]pyrimidine-2,4-diamine]	355
C[C@H]1CN(c2cc(NC3CC3)ncn2)CCN1 [Example 252, N-Cyclopropyl-6-[(3S)-3-methylpiperazin-1-yl]pyrimidin-4-amine]	370
CN[C@@H]1CCN(c2cc(NCc3ccccc3F)nc(N)n2)C1 [Example 253, N^4-(2-Fluorobenzyl)-6-[(3R)-3-(methylamino)pyrrolidin-1-yl]pyrimidine-2,4-diamine]	380
CN[C@@H]1CCN(c2cc(NCc3ccccc3)nc(N)n2)C1 [Example 254, N^4-Benzyl-6-[(3R)-3-(methylamino)pyrrolidin-1-yl]pyrimidine-2,4-diamine]	380
Nc1nc(NCc2cccc(F)c2F)cc(N2CC[C@@H](N)C2)n1 [Example 255, 6-[(3R)-3-Aminopyrrolidin-1-yl]-N^4-(2,3-difluorobenzyl)pyrimidine-2,4-diamine]	452
CN[C@@H]1CCN(c2cc(NC3CC3)nc(N)n2)C1 [Example 256, N^4-Cyclopropyl-6-[(3R)-3-(methylamino)pyrrolidin-1-yl]pyrimidine-2,4-diamine]	501
CCCNc1cc(N2CCN[C@@H](C)C2)ncn1 [Example 258, 6-[(3S)-3-Methylpiperazin-1-yl]-N-propylpyrimidin-4-amine]	509
C[C@@H]1CN(c2cc(NCc3ccccc3)nc(N)n2)CCN1 [Example 259, N^4-Benzyl-6-[(3R)-3-methylpiperazin-1-yl]pyrimidine-2,4-diamine]	577
CNC1(C)CN(c2cc(NC(C)C)ncn2)C1 [Example 261, N-Isopropyl-6-[3-methyl-3-(methylamino)azetidin-1-yl]pyrimidin-4-amine]	617
CNc1cc(N2CC[C@@H](NC)C2)ncn1 [Example 262, N-Methyl-6-[(3R)-3-(methylamino)pyrrolidin-1-yl]pyrimidin-4-amine]	623

Same assay, conditions: at 1 μM

Compound	Method 1, % at 1 μM [% at 1 μM]
CC(C)Nc1cc(N2C[C@H]3CN(C)C[C@H]3C2)nc(N)n1 [Example 241, N^4-Isopropyl-6-[(3aR*,6aS*)-5-methylhexahydropyrrolo[3,4-c]pyrrol-2(1H)-yl]pyrimidine-2,4-diamine]	45
